Entries after “also recorded” stand apart in the source; their conditions may differ.
Legend:
Assay type in all cases: cell-based
[1] = system: SW1710 bladder cancer cell line; experiment: In vitro drug sensitivity assay / crystal violet staining; details: SW1710 compared with other bladder cancer cell lines
Description: (§1) Cells were seeded in either 96-well (5,000 cells/well) or 24-well (20,000 cells/well) plates. The following day, irofulven and cisplatin stock solutions were serially diluted in media and added to cells. After 48 to 72 hours, media was removed and CellTiter-Glo® reagent (Promega; Madison, WI) was added. Plates were scanned using a luminescence microplate reader (BioTek). Survival at each drug concentration was plotted as a percentage of survival in drug-free media with error bars representing the standard deviation of at least three experiments.
For crystal violet imaging experiments, cells were seeded in 6-well plates (100,000-200,000 cells/well) with 15 nM siRNA transfection mixture (as detailed above). At 24 hours, fresh media containing irofulven or PBS was added and the cells were incubated for an additional 72 hours. Cells were then fixed in formalin solution for 30 minutes and stained with crystal violet prepared in equal volumes of methanol and water. Excess crystal violet was removed by washing with PBS, and plates were then dried and imaged.

[2] = system: KU19-19 bladder cancer cell line (NER-proficient); experiment: In vitro drug sensitivity assay (CellTiter-Glo); details: NER-proficient KU19-19; 48 to 72 hours
Description: as §1

[3] = system: MDA-MB-468 breast cancer cell line (NER deficient, ERCC4 silenced); experiment: In vitro drug sensitivity assay, parental vs ERCC4-complemented line; details: NER-deficient parental MDA-MB-468 compared with ERCC4-complemented counterpart
From the text: (§2) Bladder cancer cell lines were purchased from ATCC. The KE1 bladder cancer cell line is a derivative of KU19-19 in which an ERCC2 T484 mutation has been introduced by CRISPR/Cas9 gene editing as previously described (6). The MDA-MB-468 breast cancer cell line and its ERCC4-complemented derivative have been previously described (35). Small interfering RNAs (siRNAs) targeting specific NER genes as well as a non-targeting siRNA (siNTC) were purchased from Integrated DNA Technologies Inc. (Coralville, IA, USA; see Table 9 for sequences). Cells were seeded in 6-well plates and grown to 50% confluency. A transfection mixture containing siRNA diluted to a final concentration of 30 nM in Opti-MEM media containing Lipofectamine 3000 (Life Technologies; Carlsbad, CA) was then added to cells. After 48 hours, cells were trypsinized and re-aliquoted to separate wells and transfected with 15 nM siRNA for 24 hours immediately prior to viability assays performed as described below. […]
(§3) Cells were seeded in either 96-well (5,000 cells/well) or 24-well (20,000 cells/well) plates. […] Plates were scanned using a luminescence microplate reader (BioTek). […]

[4] = system: SC14 (SW1710 derivative with ERCC2 P463L mutation); experiment: In vitro drug sensitivity assay; details: ERCC2-mutant SC14 line compared with SW1710
From the text: as §2, §3

[5] = system: KE1 cells (NER-deficient); experiment: Immunoblotting after irofulven treatment
Description: Cells were lysed with ice-cold RIPA buffer supplemented with protease and phosphatase inhibitors (Roche). Samples were then sonicated and protein concentrations were determined using the Bradford assay. Sample buffer (Bio-Rad) was added and samples were then denatured at 90° C. for 10 mins. Samples were then loaded in NuPAGE™ protein gels (Thermo Fisher Scientific) and run at 90V for 2-3 hours. The gels were then transferred to nitrocellulose membranes at 30V overnight. Membranes were blocked for 30 mins in 5% milk in TBS buffer. Sections of the membrane corresponding to the appropriate molecular weights were stained overnight in primary antibodies prepared in 1% milk in TBST: XPF (1:700, clone D3G8C rabbit mAB, Cell Signaling); cleaved caspase 3 (1:1000, clone D175, rabbit mAB, Cell Signaling); total and cleaved PARP (1:1000, rabbit mAB, Cell Signaling); phospho-H2AX Ser139 (1:1000, clone JBW301 mouse mAB, Millipore); β-tubulin (1:1000, mouse mAB, Santa Cruz Technologies); Rpb1 CTD (1:1000, clone 4H8 Mouse mAb, Cell Signaling). A Licor Odyssey Infrared Imaging System was used for signal detection using IRDYE-conjugated secondary antibodies (LI-COR Biosciences).
Cells were lysed with ice-cold RIPA buffer supplemented with protease and phosphatase inhibitors (Roche). Samples were then sonicated and protein concentrations were determined using the Bradford assay. […]

[6] = system: cisplatin-resistant MDA-MB-468 cell line; experiment: In vitro drug sensitivity assay in cisplatin-resistant derivative; details: cisplatin-resistant derivative of NER-deficient MDA-MB-468
Description: as §1
Platinum-based chemotherapy is a first-line treatment for numerous solid malignancies including bladder cancer, but platinum resistance frequently occurs and represents a challenging clinical problem. Although a variety of platinum resistance mechanisms have been characterized, restoration or upregulation of DNA repair is a common mechanism of resistance, particularly in HR-deficient breast and ovarian tumors^33. Mechanisms of platinum resistance in NER deficient tumors have not been characterized, and we wished to determine if acquired resistance to cisplatin would confer cross-resistance to irofulven through restoration of NER. To test this, we derived cisplatin resistance in the NER-deficient MDA-MB-468 cell line by gradual exposure to escalating doses of cisplatin (Methods).

In the case of `CC1=C(CO)C2=C(C)C3(CC3)[C@@](C)(O)C(=O)C2=C1` [irofulven], the irofulven sensitivity [1] is reported as “much higher sensitivity”, the “drug sensitivity (survival as percentage of drug-free media)” value [2] is reported as “minimal sensitivity” and the irofulven sensitivity [3] is reported as “significantly more sensitive; also recorded: dramatically higher irofulven sensitivity”. For the same compound, the drug sensitivity [4] was “significantly increased sensitivity”, the “RNA polymerase level (immunoblot)” value ([5]; following irofulven treatment, KE1) was “time-dependent loss” and the “phospho-H2AX (γH2AX), cleaved PARP and cleaved caspase-3 (immunoblot)” value ([5]; irofulven-treated NER-deficient cells) was “accumulation”. For the same compound, the irofulven sensitivity [6] was “remains sensitive; also recorded: highly sensitive”.
